What was measured:
rat [1] = details: Combined chronic toxicity/carcinogenicity, sprague dawley, Oral, Feed, dose end: 104 week
rabbit [2] = details: Prenatal developmental toxicity study, new zealand white, Oral, Gavage/Intubation, dose end: 19 GD, group: maternal
rabbit [3] = details: Prenatal developmental toxicity study, New Zealand White, Oral, Gavage/Intubation, dose end: 19 GD, group: maternal
rat [4] = details: Subchronic oral toxicity in rodents, sprague dawley, Gavage/Intubation, dose end: 90 day, group: systemic
rat [5] = details: Subchronic inhalation toxicity, sprague dawley, Whole-Body, dose end: 13 week
rabbit [6] = details: Prenatal developmental toxicity study, new zealand white, Oral, Gavage/Intubation, dose end: 19 GD, group: maternal; remark: listed apart in the source
rat [7] = details: Subchronic dermal toxicity, sprague dawley, Topical, dose end: 91 day
rat [8] = details: Neurotoxicity screening battery; sprague dawley; Oral; Feed; dose end: 13 week; group: cannot be grouped; cholinesterase / cholinesterase / cholinesterase / plasma cholinesterase (che) + systemic / in life observation / food consumption / food …
rat [9] = details: Prenatal developmental toxicity study, sprague dawley, Oral, Gavage/Intubation, dose end: 15 GD
rat [10] = details: Prenatal developmental toxicity study, sprague dawley, Oral, Gavage/Intubation, dose end: 15 GD; remark: listed apart in the source
mouse = details: Carcinogenicity, cd1, Oral, Feed, dose end: 78 week, group: systemic
rat [11] = details: Prenatal developmental toxicity study, sprague dawley, Oral, Gavage/Intubation, dose end: 15 GD; remark: listed apart in the source
rat [12] = details: Subchronic oral toxicity in rodents, sprague dawley, Gavage/Intubation, dose end: 90 day
[13] = group: cholinesterase, cholinesterase / cholinesterase / cholinesterase / erythrocyte cholinesterase (che) + cholinesterase / cholinesterase / cholinesterase / …
[14] = group: cholinesterase, cholinesterase / cholinesterase / cholinesterase / plasma cholinesterase (che)
[15] = group: systemic, systemic / in life observation / body weight / body weight gain
[16] = group: systemic, systemic / in life observation / body weight / body weight gain + systemic / clinical chemistry / cholesterol / cholesterol + systemic / …
[17] = systemic / in life observation / clinical signs / defecation + systemic / in life observation / food consumption / food consumption + …
[18] = systemic / in life observation / body weight / body weight gain + systemic / in life observation / food consumption / food consumption + …
[19] = group: cholinesterase, cholinesterase / cholinesterase / cholinesterase / brain cholinesterase (che)
[20] = group: cholinesterase, cholinesterase / cholinesterase / cholinesterase / brain cholinesterase (che) + cholinesterase / cholinesterase / cholinesterase / …
[21] = group: systemic, systemic / clinical chemistry / glucose / glucose + systemic / clinical chemistry / alanine aminotransferase (alt/sgpt) / alanine …
[22] = reproductive / reproductive performance / resorptions / resorptions + systemic / in life observation / body weight / body weight gain + …
[23] = group: cholinesterase, cholinesterase / cholinesterase / cholinesterase / plasma cholinesterase (che) + cholinesterase / cholinesterase / cholinesterase / …
[24] = group: systemic, systemic / pathology microscopic / skin / hyperkeratosis + systemic / clinical chemistry / calcium / calcium + systemic / clinical chemistry…
[25] = group: systemic, systemic / pathology microscopic / skin / hyperkeratosis + systemic / clinical chemistry / glucose / glucose + systemic / in life …
[26] = group: developmental, developmental / developmental malformation / bone / unossified + systemic / in life observation / body weight / fetal weight
[27] = group: maternal, systemic / in life observation / body weight / body weight gain + systemic / in life observation / food consumption / food consumption + …
[28] = group: developmental, developmental / developmental malformation / bone / incomplete ossification + developmental / developmental malformation / bone / wavy
[29] = group: maternal, systemic / in life observation / body weight / body weight gain
[30] = systemic / pathology microscopic / thyroid gland / vacuolization + systemic / pathology microscopic / thyroid gland / hypertrophy
[31] = systemic / pathology microscopic / thyroid gland / vacuolization + systemic / pathology microscopic / thyroid gland / hypertrophy + systemic…
[32] = group: developmental, developmental / developmental landmark / [other] / [other]
[33] = group: maternal, systemic / in life observation / body weight / body weight gain + systemic / in life observation / clinical signs / salivation + systemic / …
[34] = group: cholinesterase, cholinesterase / cholinesterase / cholinesterase / cholinesterase (che)
[35] = group: systemic, systemic / in life observation / clinical signs / salivation + systemic / pathology gross / liver / misshapen
[36] = group: systemic, systemic / in life observation / clinical signs / salivation + systemic / pathology gross / liver / misshapen + systemic / pathology …

CCCCNC(=O)OCC#CI [3-Iodo-2-propynyl-N-butylcarbamate]
LOAEL (rat [1]; [13]): > 80.1 mg/kg/day
NOAEL (rat [1]; [13]): ≥ 80.1 mg/kg/day
LEL (rat [1]; [14]): 20.1 mg/kg/day
NEL (rat [1]; [14]): < 20.1 mg/kg/day
LOAEL (rat [1]; [15]): 20.1 mg/kg/day
NOAEL (rat [1]; [15]): < 20.1 mg/kg/day
LEL (rat [1]; [16]): 20.1 mg/kg/day
NEL (rat [1]; [16]): < 20.1 mg/kg/day
LEL (rabbit [2]; [17]): 20 mg/kg/day
NEL (rabbit [2]; [17]): 10 mg/kg/day
NOAEL (rabbit [2]; [17]): 20 mg/kg/day
LOAEL (rabbit [2]; systemic / in life observation / clinical signs / defecation + systemic / pathology gross / stomach / discolored + reproductive / …): 40 mg/kg/day
LOAEL (rabbit [3]; systemic / in life observation / body weight / body weight gain + systemic / in life observation / food consumption / food consumption): 20 mg/kg/day
LEL (rabbit [3]; [18]): 20 mg/kg/day
NEL (rabbit [3]; [18]): 10 mg/kg/day
NOAEL (rabbit [3]; [18]): 10 mg/kg/day
NEL (rat [4]; systemic / in life observation / clinical signs / post-dosing rooting in bedding + systemic / organ weight / liver / relative to body weight…): 20 mg/kg/day
LOAEL (rat [4]; systemic / organ weight / liver / relative to body weight): 50 mg/kg/day
NOAEL (rat [4]; systemic / organ weight / liver / relative to body weight + systemic / in life observation / body weight / body weight gain + systemic / in …): 20 mg/kg/day
LEL (rat [4]; systemic / organ weight / liver / relative to body weight + systemic / in life observation / clinical signs / post-dosing rooting in bedding…): 50 mg/kg/day
LEL (rat [5]; [19]): 0.11 ppm
LOAEL (rat [5]; [19]): 0.11 ppm
NEL (rat [5]; [20]): 0.0217 ppm
NOAEL (rat [5]; [20]): 0.0217 ppm
LEL (rat [5]; group: systemic, systemic / clinical chemistry / glucose / glucose): 0.11 ppm
LOAEL (rat [5]; [21]): > 0.54 ppm
NEL (rat [5]; [21]): 0.0217 ppm
NOAEL (rat [5]; [21]): ≥ 0.54 ppm
LEL (rabbit [6]; reproductive / reproductive performance / resorptions / resorptions): 20 mg/kg/day
NEL (rabbit [6]; [22]): 2 mg/kg/day
NOAEL (rabbit [6]; [22]): 20 mg/kg/day
LOAEL (rabbit [6]; systemic / in life observation / body weight / body weight gain + systemic / in life observation / clinical signs / [other] + systemic / in …): 50 mg/kg/day
NEL (rat [7]; [14]): 200 mg/kg/day
LEL (rat [7]; [23]): 500 mg/kg/day
LOAEL (rat [7]; [23]): > 500 mg/kg/day
NOAEL (rat [7]; [23]): ≥ 500 mg/kg/day
NEL (rat [7]; [24]): 50 mg/kg/day
NOAEL (rat [7]; [24]): 50 mg/kg/day
LEL (rat [7]; [25]): 200 mg/kg/day
LOAEL (rat [7]; [25]): 200 mg/kg/day
LEL (rat [8]): 50 mg/kg/day
LOAEL (rat [8]): 50 mg/kg/day
NEL (rat [8]): 10 mg/kg/day
NOAEL (rat [8]): 10 mg/kg/day
LEL (rat [9]; [26]): 250 mg/kg/day
LOAEL (rat [9]; [26]): 250 mg/kg/day
NEL (rat [9]; [26]): 75 mg/kg/day
NOAEL (rat [9]; [26]): 75 mg/kg/day
LOAEL (rat [9]; group: maternal, systemic / in life observation / body weight / body weight gain + systemic / in life observation / food consumption / food consumption): 75 mg/kg/day
LEL (rat [9]; [27]): 75 mg/kg/day
NEL (rat [9]; [27]): 25 mg/kg/day
NOAEL (rat [9]; [27]): 25 mg/kg/day
LEL (rat [10]; [28]): 125 mg/kg/day
LOAEL (rat [10]; [28]): 125 mg/kg/day
NEL (rat [10]; [28]): 50 mg/kg/day
NOAEL (rat [10]; [28]): 50 mg/kg/day
LEL (rat [10]; [29]): 125 mg/kg/day
LOAEL (rat [10]; [29]): 125 mg/kg/day
NEL (rat [10]; [29]): 50 mg/kg/day
NOAEL (rat [10]; [29]): 50 mg/kg/day
LOAEL (mouse; [30]): 19.8 mg/kg/day
NOAEL (mouse; [30]): < 19.8 mg/kg/day
LEL (mouse; [31]): 19.8 mg/kg/day
NEL (mouse; [31]): < 19.8 mg/kg/day
LEL (rat [11]; [32]): 250 mg/kg/day
LOAEL (rat [11]; [32]): 250 mg/kg/day
NEL (rat [11]; [32]): 75 mg/kg/day
NOAEL (rat [11]; [32]): 75 mg/kg/day
LEL (rat [11]; [33]): 75 mg/kg/day
LOAEL (rat [11]; [33]): 75 mg/kg/day
NEL (rat [11]; [33]): 25 mg/kg/day
NOAEL (rat [11]; [33]): 25 mg/kg/day
LEL (rat [12]; [34]): 75 mg/kg/day
LOAEL (rat [12]; [34]): > 200 mg/kg/day
NEL (rat [12]; [34]): 25 mg/kg/day
NOAEL (rat [12]; [34]): ≥ 200 mg/kg/day
LOAEL (rat [12]; [35]): 25 mg/kg/day
NOAEL (rat [12]; [35]): < 25 mg/kg/day
LEL (rat [12]; [36]): 25 mg/kg/day
NEL (rat [12]; [36]): < 25 mg/kg/day
